Experimental data published in US8653304B2, “2,3-dihydro-1H-indene-2-yl urea derivative and pharmaceutical application of same” (Toray Industries, Inc., priority 2009, dated 2014).

What was measured:
TNFα production = test: Mouse LPS-induced cytokine production model; type: in vivo; details: BALB/c mouse, 50 mg/kg oral 30 minutes before LPS 1 mg/kg i.p., serum 60 minutes after LPS
Description: The action of Compound (I) on the TNFα production induced by LPS administration in a mouse was studied by a method partially modified from the method described in Journal of Immunology (1992, Vol. 148, pp. 1890-1897).
To each BALB/c mouse (male, 7 to 9-week old, Charles River Laboratories Japan, Inc.), LPS (0111:B4, SIGMA) was intraperitoneally administered at a dose of 1 mg/kg. Sixty minutes after the LPS administration, blood was collected from the abdominal vena cava under anesthesia and centrifuged for 15 minutes at 4° C. to obtain a serum. For the measurement of TNF-α in the serum, ELISA Development System (R&D Systems) was used. Each test compound was dissolved in DMSO (Final Concentration: 2%), and then the obtained solution was dissolved in a 27% aqueous solution of 2-hydroxypropyl-β-cyclodextrin (hereinafter referred to as “HP-β-CD”; Nihon Shokuhin Kako Co., Ltd.). Thirty minutes before the LPS administration, the resulting solution was orally administered at 50 mg/kg.

[1] = tested on: hyperalgesia in carrageenin paw edema pain model; test: Hyperalgesia in inflammatory pain model (carrageenin paw edema pain model); type: in vivo; details: SD rat, oral 100 mg/kg 30 minutes before carrageenin, measured 90 minutes after carrageenin; FIG. 1
Excerpt: (§1) The action of Compound (I) on hyperalgesia in pain models was studied. As the pain models, models partially modified from an inflammatory pain model (a carrageenin paw edema pain model) and neuropathic pain models (Bennett model and Chung model) described in documents (Anesth. Analg., 2009, Vol. 108, pp. 1680-1687; Pain, 1988, Vol. 33, pp. 87-107; and Pain, 1992, Vol. 50, pp. 355-363) were used.
To the footpad of the left hind limb of each Crl:CD (SD) rat (male, 6-week old, Charles River Laboratories Japan, Inc.), an 1 w/v % suspension of carrageenin (Zushi Kagaku Laboratory, Inc.) in physiological saline was subcutaneously administered at 0.1 mL/body to produce the carrageenin paw edema pain model. Ninety minutes after the administration of the 1 w/v % suspension of carrageenin in physiological saline, the pain threshold (mmHg) of the footpad of the left hind limb was measured using Analgesy Meter (TK-201, Unicom) wherein the stimulating pressure was set so as to rise from 0 mmHg to 100 mmHg for 10 seconds. Each test compound was suspended in 0.5 w/v % methylcellulose (Wako Pure Chemical Industries, Ltd.), and the obtained solution was orally administered 30 minutes before the administration of the 1 w/v % suspension of carrageenin in physiological saline. […]

human p38 MAPK α = human p38 MAPK α (Homo sapiens (Human), UniProt Q16539); test: Evaluation of p38 MAPK inhibitory activity (Alpha Screen, ATF2 phosphorylation); type: biochemical; details: p38α/SAPK2a 1.5 nM, ATP 100 μM, biotinylated ATF2 30 nM
Description: Using human p38 MAPK α, the p38 MAPK inhibitory activity of Compound (I) was studied by a method partially modified from the method described in Current Medicinal Chemistry (2004, No. 11, pp. 721-730).
A solution of each test compound solution in 100% DMSO and a p38α/SAPK2a solution (Final Concentration: 1.5 nM) (Invitrogen) were added to a 384-well plate, and then the plate was incubated at room temperature in a dark place for 1 hour. Thereafter, ATP (Final Concentration: 100 μM), which is a phosphate donor, and biotinylated ATF2 (Final Concentration: 30 nM) (upstate), which is a substrate, were added, and the resulting mixture was allowed to react at room temperature in a dark place for 1 hour (the final concentration of DMSO was 0.25%). After the reaction, an anti-phosphorylated ATF2 antibody (Final Concentration: 1 nM) (Cell Signaling), anti-IgG acceptor beads (Final Concentration: 20 μg/mL) (PerkinElmer) and streptavidin donor beads (Final Concentration: 20 μg/mL) (PerkinElmer) were added, and the resultant was incubated at room temperature in a dark place for 1 hour. Using a microplate analyzer (Fusion-α, Packard) in Alpha Screen method (Amplified Luminescent Proximity Homogeneous Assay), the light emission was detected. The IC50 value of each compound was calculated by sigmoidal dose-response regression using Prism 4.02 (GraphPad Software, Inc.).

[2] = tested on: hyperalgesia in Chung model; test: Hyperalgesia in neuropathic pain model (Chung model), von Frey test; type: in vivo; details: SD rat, Chung model day 7, oral 100 mg/kg, 90 minutes after administration
Excerpt: as §1
The Chung model was produced by completely ligating the L5 and L6 spinal nerves of each Crl:CD (SD) rat (male, 6-week old, Charles River Laboratories Japan, Inc.) with a silk suture (5-0). Seven days after the Chung model was produced, each test compound was orally administered, and von Frey test was performed 90 minutes after the administration. In addition, fifteen days after the Chung model was produced, each test compound was orally administered, and plantar test was performed 90 minutes after the administration. The von Frey test was carried out by measuring the pain threshold (g) of the left footpad (model foot) using Dynamic Plantar Aesthesiometer (37400, Ugo Basile) wherein the maximum pressure was set to 30.0 g and the time required to reach the maximum pressure was set to 40 seconds. The plantar test was carried out by the method described above. […]

human p38 MAPK α, sequence (Q16539 whole entry): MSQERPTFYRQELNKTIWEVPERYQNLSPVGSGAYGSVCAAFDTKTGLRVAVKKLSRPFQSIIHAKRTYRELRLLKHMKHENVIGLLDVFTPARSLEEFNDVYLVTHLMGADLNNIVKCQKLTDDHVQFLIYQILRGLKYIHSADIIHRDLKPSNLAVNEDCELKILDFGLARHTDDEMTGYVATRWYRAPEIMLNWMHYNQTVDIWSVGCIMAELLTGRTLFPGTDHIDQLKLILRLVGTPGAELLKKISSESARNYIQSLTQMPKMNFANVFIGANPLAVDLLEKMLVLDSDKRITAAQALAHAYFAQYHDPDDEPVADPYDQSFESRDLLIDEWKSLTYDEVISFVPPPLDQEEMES

For `COc1c(NC(=O)N[C@@H]2Cc3ccccc3[C@@H]2O)cc(C(C)(C)C)cc1[C@@H](O)C(F)(F)F` [Compound 46b, 1-(5-tert-butyl-2-methoxy-3-((R)-2,2,2-trifluoro-1-hydroxyethyl)phenyl)-3-((1S,2R)-1-hydroxy-2,3-dihydro-1H-indene-2-yl)urea], the “Suppression Ratio of TNFα production” value (TNFα production) was 100.0%, the “pain threshold (mmHg) compared to solvent-administered group” value [1] was “significantly elevated” and the IC50 (human p38 MAPK α) was 15 nM. The “pain threshold, von Frey test” value [2] was 7.0 ± 0.3 g.
